36 compounds from US9409917B2, “Heterocyclic amide derivatives as P2X7 receptor antagonists” (ACTELION PHARMACEUTICALS LTD., priority 2012, dated 2016) can be followed below.

The first test deals with human recombinant P2X7 receptor (Homo sapiens (Human), UniProt Q99572). The test can be described thus: YO-PRO assay: P2X7 receptor antagonistic activity (ATP-induced YO-PRO-1 uptake, FLIPR).
human recombinant P2X7 receptor, sequence (Q99572 whole entry): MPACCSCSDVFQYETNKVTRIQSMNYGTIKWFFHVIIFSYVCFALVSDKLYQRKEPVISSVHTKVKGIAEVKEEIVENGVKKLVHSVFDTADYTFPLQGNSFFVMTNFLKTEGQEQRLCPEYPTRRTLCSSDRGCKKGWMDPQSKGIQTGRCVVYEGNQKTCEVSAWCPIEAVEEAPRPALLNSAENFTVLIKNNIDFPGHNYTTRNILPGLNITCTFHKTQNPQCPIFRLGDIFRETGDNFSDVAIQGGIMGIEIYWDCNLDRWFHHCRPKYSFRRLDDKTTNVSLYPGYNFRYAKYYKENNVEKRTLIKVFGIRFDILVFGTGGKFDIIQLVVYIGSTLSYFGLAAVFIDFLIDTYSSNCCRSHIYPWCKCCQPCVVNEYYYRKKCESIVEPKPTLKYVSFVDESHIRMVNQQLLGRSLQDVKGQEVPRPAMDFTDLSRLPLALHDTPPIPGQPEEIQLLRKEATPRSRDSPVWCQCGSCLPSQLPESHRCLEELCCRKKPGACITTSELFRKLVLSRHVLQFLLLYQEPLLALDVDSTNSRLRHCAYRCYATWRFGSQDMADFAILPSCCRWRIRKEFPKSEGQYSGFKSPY
Details: not given
Regarding `O=C(NC(CO)C1CCCCCC1)C1COc2ncccc21` (single isomer, unassigned) [Example 13, rac-2,3-Dihydro-furo[2,3-b]pyridine-3-carboxylic acid (1-cycloheptyl-2-hydroxy-ethyl)-amide], the IC50 is 813 nM.

As for `Cc1cc(Cl)cc(Cl)c1CNC(=O)C1(F)CCOc2ncccc21` (racemic) [Example 12, rac-4-Fluoro-3,4-dihydro-2H-pyrano[2,3-b]pyridine-4-carboxylic acid 2,4-dichloro-6-methyl-benzylamide], the IC50 turned out to be 3.1 nM.

As to `CN(Cc1ccc(Cl)cc1)C(=O)C1COc2ncccc21` (racemic) [Example 48, rac-2,3-Dihydro-furo[2,3-b]pyridine-3-carboxylic acid (4-chloro-benzyl)-methyl-amide], the IC50 turned out to be 1090 nM.

Take `Cc1ncc(C(CNC(=O)C2COc3ncccc32)N2CCC(F)(F)CC2)cn1` (single isomer, unassigned) [Example 28, rac-2,3-Dihydro-furo[2,3-b]pyridine-3-carboxylic acid [2-(4,4-difluoro-piperidin-1-yl)-2-(2-methyl-pyrimidin-5-yl)-ethyl]-amide]: the IC50 amounted to 58.9 nM.

Turning to `Cc1cc(Cl)cc(Cl)c1CNC(=O)C1(F)COc2ncccc21` (racemic) [Example 11, rac-3-Fluoro-2,3-dihydro-furo[2,3-b]pyridine-3-carboxylic acid 2,4-dichloro-6-methyl-benzylamide], the IC50 was 4.8 nM.

`C=Cc1cc(Cl)cc(Cl)c1CNC(=O)C1COc2ncccc21` (racemic) [Example 23, rac-2,3-Dihydro-furo[2,3-b]pyridine-3-carboxylic acid 2,4-dichloro-6-vinyl-benzylamide]: the IC50 turned out to be 12.2 nM.

Regarding `O=C(NCc1ccc(F)cc1Cl)C1CCOc2ncccc21` (racemic) [Example 32, rac-3,4-Dihydro-2H-pyrano[2,3-b]pyridine-4-carboxylic acid 2-chloro-4-fluoro-benzylamide], the IC50 was 25 nM.

As to `N#Cc1ccc(CNC(=O)C2COc3ncccc32)c(Cl)c1` (racemic) [Example 61, rac-2,3-Dihydro-furo[2,3-b]pyridine-3-carboxylic acid 2-chloro-4-cyano-benzylamide], the IC50 amounted to 389 nM.

Take `Cc1c(Cl)cccc1CNC(=O)C1COc2ncccc21` (racemic) [Example 42, rac-2,3-Dihydro-furo[2,3-b]pyridine-3-carboxylic acid 3-chloro-2-methyl-benzylamide]: the IC50 came out at 46.9 nM.

In the case of `[2H]C([2H])([2H])c1cc(Cl)cc(Cl)c1CNC(=O)C1COc2ncccc21` (single isomer, unassigned) [Example 97, 2,3-Dihydro-furo[2,3-b]pyridine-3-carboxylic acid 2,4-dichloro-6-trideuteromethyl-benzylamide], the 50% inhibitory concentration (IC50) was determined as 20 nM.

For `CCc1cc(Cl)cc(Cl)c1CNC(=O)C1COc2ncccc21` (racemic) [Example 22, rac-2,3-Dihydro-furo[2,3-b]pyridine-3-carboxylic acid 2,4-dichloro-6-ethyl-benzylamide], the IC50 came out at 1.5 nM.

Regarding `O=C(NC1CCc2cc(Cl)ccc21)C1COc2ncccc21` (single isomer, unassigned) [Example 99, rac-2,3-Dihydro-furo[2,3-b]pyridine-3-carboxylic acid (5-chloro-indan-1-yl)-amide], the IC50 was 301 nM.

Turning to `O=C(NCc1cccc(Cl)c1Cl)C1(F)COc2ncccc21` (racemic) [Example 20, rac-3-Fluoro-2,3-dihydro-furo[2,3-b]pyridine-3-carboxylic acid 2,3-dichloro-benzylamide], the IC50 came to 67.9 nM.

`Cc1c(Cl)cccc1CNC(=O)C1CCOc2ncccc21` (racemic) [Example 31, rac-3,4-Dihydro-2H-pyrano[2,3-b]pyridine-4-carboxylic acid 3-chloro-2-methyl-benzylamide]: the IC50 turned out to be 16 nM.

As to `O=C(NCc1ccc(F)cc1Cl)C1COc2ncccc21` (racemic) [Example 43, rac-2,3-Dihydro-furo[2,3-b]pyridine-3-carboxylic acid 2-chloro-4-fluoro-benzylamide], the IC50 turned out to be 86.8 nM.

As for `O=C(NCc1cccc(Cl)c1Cl)C1COc2ncccc21` (racemic) [Example 45, rac-2,3-Dihydro-furo[2,3-b]pyridine-3-carboxylic acid 2,3-dichloro-benzylamide], the IC50 was determined as 37.2 nM.

For the compound `O=C(NCC(c1cnc(C(F)(F)F)nc1)N1CCOCC1)C1COc2ncccc21` (single isomer, unassigned) [Example 59, rac-2,3-Dihydro-furo[2,3-b]pyridine-3-carboxylic acid [2-morpholin-4-yl-2-(2-trifluoromethyl-pyrimidin-5-yl)-ethyl]-amide], the IC50 is 346 nM.

As for `O=C(NCc1cccc(C(F)(F)F)c1Cl)C1(F)COc2ncccc21` (racemic) [Example 55, rac-3-Fluoro-2,3-dihydro-furo[2,3-b]pyridine-3-carboxylic acid 2-chloro-3-trifluoromethyl-benzylamide], the IC50 was determined as 41.6 nM.

As to `Cc1ncc(C(CNC(=O)C2COc3ncccc32)N2CCC(F)(F)CC2)cn1` (single isomer, unassigned) [Example 27, rac-2,3-Dihydro-furo[2,3-b]pyridine-3-carboxylic acid [2-(4,4-difluoro-piperidin-1-yl)-2-(2-methyl-pyrimidin-5-yl)-ethyl]-amide], the half-inhibitory concentration (IC50) stood at 1360 nM.

With `O=C(NCc1c(Cl)cc(Cl)cc1OCCO)C1COc2ncccc21` (racemic) [Example 50, rac-2,3-Dihydro-furo[2,3-b]pyridine-3-carboxylic acid 2,4-dichloro-6-(2-hydroxy-ethoxy)-benzylamide], the IC50 amounted to 54.6 nM.

Still in this test, the particulars now being: read-out: IC50 [nM], antagonistic activities with respect to the P2X7 receptor.
Take `Cc1cc(Cl)cc(Cl)c1CNC(=O)C1CCOc2c1ccc[n+]2[O-]` (racemic) [Example 41, rac-8-Oxy-3,4-dihydro-2H-pyrano[2,3-b]pyridine-4-carboxylic acid 2,4-dichloro-6-methyl-benzylamide]: the IC50 was 16.3 nM.

The test is the same for the next values; noted with them: read-out: IC50 [nM], antagonistic activities with respect to the P2X7 receptor; HEK-293 cells expressing human recombinant P2X7 receptor; YO-PRO-1 fluorescence; ATP 250 μM, 90 minutes; highest concentration 10 μM.
As to `O=C(N[C@H](CO)C1CCCCC1)C1COc2ncccc21` (single isomer, unassigned) [Example 2], the IC50 amounted to 106 nM.

For `O=C(N[C@H](CO)C1CCCCC1)C1COc2ncccc21` (single isomer, unassigned) [Example 1], the concentration for half-maximal inhibition (IC50) was 1070 nM.

In the case of `Cc1cc(Cl)cc(Cl)c1CNC(=O)C1CCOc2ncccc21` (single isomer, unassigned) [Example 17, 3,4-Dihydro-2H-pyrano[2,3-b]pyridine-4-carboxylic acid 2,4-dichloro-6-methyl-benzylamide], the IC50 came to 1.3 nM.

On to `O=C(NCc1c(Cl)cc(Cl)cc1Br)C1COc2ncccc21` (single isomer, unassigned) [Example 80, 2,3-Dihydro-furo[2,3-b]pyridine-3-carboxylic acid 2-bromo-4,6-dichloro-benzylamide], for which the IC50 was determined as 4.1 nM.

On to `O=C(NCC(c1ccc(C(F)(F)F)cc1)N1CCC(F)(F)CC1)C1COc2ncccc21` (stereo not drawn) [Example 78, 2,3-Dihydro-furo[2,3-b]pyridine-3-carboxylic acid [2-(4,4-difluoro-piperidin-1-yl)-2-(4-trifluoromethyl-phenyl)-ethyl]-amide], for which the IC50 is 122 nM.

Regarding “(S)-2,3-Dihydro-furo[2,3-b]pyridine-3-carboxylic acid ((1S,2R)-2-hydroxy-indan-1-yl)-amide and (R)-2,3-Dihydro-furo[2,3-b]pyridine-3-carboxylic acid ((1S,2R)-2-hydroxy-indan-1-yl)-amide [Example 65]”, the half-inhibitory concentration (IC50) came to 3400 nM.

Regarding `O=C(NC1CCc2cccc(Br)c21)C1COc2ncccc21` (stereo not drawn) [Example 113, 2,3-Dihydro-furo[2,3-b]pyridine-3-carboxylic acid (7-bromo-indan-1-yl)-amide], the half-maximal inhibitory concentration (IC50) was determined as 35.9 nM.

Take `O=C(NCc1c(Cl)cc(Cl)cc1CO)C1COc2ncccc21` (single isomer, unassigned) [Example 25, 2,3-Dihydro-furo[2,3-b]pyridine-3-carboxylic acid 2,4-dichloro-6-hydroxymethyl-benzylamide]: the IC50 turned out to be 2.7 nM.

On to `C[C@@H](NC(=O)C1COc2ncccc21)c1ccc(Cl)cc1Cl` (stereo partly drawn) [Example 71, 2,3-Dihydro-furo[2,3-b]pyridine-3-carboxylic acid [(R)-1-(2,4-dichloro-phenyl)-ethyl]-amide], for which the IC50 was 36.5 nM.

For the compound `O=C(NCC(c1cnc(C(F)(F)F)nc1)N1CCOCC1)C1COc2ncccc21` (stereo not drawn) [Example 83, 2,3-Dihydro-furo[2,3-b]pyridine-3-carboxylic acid [2-morpholin-4-yl-2-(2-trifluoromethyl-pyrimidin-5-yl)-ethyl]-amide], the IC50 came to 124 nM.

Turning to `Cc1cc(Cl)cc(Cl)c1CNC(=O)C1COc2ncccc21` (single isomer, unassigned) [Example 4, 2,3-Dihydro-furo[2,3-b]pyridine-3-carboxylic acid 2,4-dichloro-6-methyl-benzylamide], the IC50 is 2.9 nM.

For `O=C(N[C@@H]1CCCc2ccccc21)C1COc2ncccc21` (stereo partly drawn) [Example 108, 2,3-dihydrofuro[2,3-b]pyridine-3-carboxylic acid ((R)-1,2,3,4-tetrahydronaphthalen-1-yl)-amide], the half-inhibitory concentration (IC50) is 191 nM.

Consider `O=C(N[C@H](CO)c1ccc(Cl)cc1Cl)C1COc2ncccc21` (single isomer, unassigned) [Example 7], for which the half-maximal inhibitory concentration (IC50) was found to be 117 nM.

Consider `O=C1c2c(Cl)cc(Cl)cc2CC1NC(=O)C1COc2ncccc21` (stereo not drawn) [Example 116, 2,3-Dihydro-furo[2,3-b]pyridine-3-carboxylic acid (5,7-dichloro-1-oxo-indan-2-yl)-amide], for which the 50% inhibitory concentration (IC50) worked out at 9010 nM.

`Cc1ccc(C(CNC(=O)C2COc3ncccc32)N2CCOCC2)cn1` (stereo not drawn) [Example 90, 2,3-Dihydro-furo[2,3-b]pyridine-3-carboxylic acid [2-(6-methyl-pyridin-3-yl)-2-morpholin-4-yl-ethyl]-amide]: the IC50 worked out at 1150 nM.

By IC50 is commonly meant the concentration that gives 50% inhibition.
